{
  "source": "paper PMC4189262",
  "about": "(Pharmacognosy Magazine, 2014)",
  "key": {"human CYP1A2": {"system": "human CYP1A2", "conditions": "ref Shimada et al. [26]; cited from earlier work"}, "[1]": {"system": "rat pheochromocytoma PC12 cells", "conditions": "limited supply of serum and hydrogen peroxide, ref Hong et al. [14]; cited from earlier work"}, "isolated rat hepatocytes [2]": {"system": "isolated rat hepatocytes", "experiment": "Glutathione", "format": "cell-based", "conditions": "60 μM, hepatocytes incubation, vs control"}, "isolated rat hepatocytes [3]": {"system": "isolated rat hepatocytes", "experiment": "Lactate dehydrogenase", "format": "cell-based", "conditions": "60 μM, hepatocytes incubation, vs control"}, "isolated rat hepatocytes [4]": {"system": "isolated rat hepatocytes", "experiment": "Malondialdehyde", "format": "cell-based", "conditions": "60 μM, hepatocytes incubation, vs control"}, "isolated rat hepatocytes [5]": {"system": "isolated rat hepatocytes", "experiment": "Trypan blue exclusion", "conditions": "60 μM, hepatocytes incubation, vs control"}},
  "data": [
    {"smiles": "O=c1c(-c2ccc(O)cc2)coc2cc(O)cc(O)c12", "note": "[genistein]", "values": [
      {"measurement": "inhibitory activity on human CYP1A2", "setting": "human CYP1A2", "value": "inhibitory activity"}
    ]},
    {"smiles": "O=c1c(O)c(-c2ccccc2)oc2cc(O)cc(O)c12", "note": "[galangin]", "values": [
      {"measurement": "inhibitory activity on human CYP1A2", "setting": "human CYP1A2", "value": "inhibitory activity"}
    ]},
    {"smiles": "COc1cc(O)c2c(=O)c(O)c(-c3ccc(O)cc3)oc2c1", "note": "[rhamnocitrin, kempferol 7-O-methyl ether]", "values": [
      {"measurement": "protective effects on oxidative damage", "setting": "[1]", "value": "protective effects"}
    ]},
    {"smiles": "Cn1c(CCCC(=O)O)nc2cc(N(CCCl)CCCl)ccc21", "note": "[Bendamustine]", "values": [
      {"measurement": "depletion of cell GSH", "setting": "isolated rat hepatocytes [2]", "value": 76, "unit": "%"},
      {"measurement": "increased LDH leakage", "setting": "isolated rat hepatocytes [3]", "value": 59, "unit": "%"},
      {"measurement": "increased MDA level", "setting": "isolated rat hepatocytes [4]", "value": 194, "unit": "%"},
      {"measurement": "reduction of cell viability", "setting": "isolated rat hepatocytes [5]", "value": 33, "unit": "%"}
    ]},
    {"smiles": "O=c1cc(-c2ccccc2)oc2cc(O)cc(O)c12", "note": "[chrysin]", "values": [
      {"measurement": "inhibitory activity on human CYP1A2", "setting": "human CYP1A2", "value": "inhibitory activity"}
    ]},
    {"smiles": "O=c1cc(-c2ccc(O)cc2)oc2cc(O)cc(O)c12", "note": "[apigenin]", "values": [
      {"measurement": "inhibitory activity on human CYP1A2", "setting": "human CYP1A2", "value": "inhibitory activity"}
    ]},
    {"smiles": "O=c1c(O)c(-c2ccc(O)cc2)oc2cc(O)cc(O)c12", "note": "[kaempferol]", "values": [
      {"measurement": "protective effects on oxidative damage", "setting": "[1]", "value": "protective effects"},
      {"measurement": "inhibitory activity on human CYP1A2", "setting": "human CYP1A2", "value": "inhibitory activity"}
    ]},
    {"smiles": "O=P1(N(CCCl)CCCl)NCCCO1", "note": "(stereo not drawn) [Cyclophosphamide]", "values": [
      {"measurement": "depletion of cell GSH", "setting": "isolated rat hepatocytes [2]", "value": 72, "unit": "%"},
      {"measurement": "increased LDH leakage", "setting": "isolated rat hepatocytes [3]", "value": 100, "unit": "%"},
      {"measurement": "increased MDA level", "setting": "isolated rat hepatocytes [4]", "value": 184, "unit": "%"},
      {"measurement": "reduction of cell viability", "setting": "isolated rat hepatocytes [5]", "value": 43, "unit": "%"}
    ]}
  ]
}
